Experimental data from patent publication US10323038B2, “Pyrazole compounds and methods of making and using same” (ABIDE THERAPEUTICS, INC., priority 2015, dated 2019).

Tests used:
[1] = molecular target: T1, MAGL (Mus musculus (Mouse), UniProt O35678); experiment: Mouse brain proteomes from inhibitor treated mice (oral gavage, 4 h), MAGL; format: in vivo; conditions: read-out: MAGL % inh. 5 mg/kg (mouse)
Protocol: Preparation of Mouse Brain Proteomes from Inhibitor Treated Mice.
Inhibitors were administered to wild-type C57Bl/6J by oral gavage in a vehicle of polyethylene glycol. Each animal was sacrificed 4 h following administration and brain proteomes were prepared and analyzed according to previously established methods (See Niphakis, M. J., et al. (2011) ACS Chem. Neurosci. and Long, J. Z., et al. Nat. Chem. Biol. 5:37-44).

[2] = molecular target: FAAH (Mus musculus (Mouse), UniProt O08914); experiment: In vitro competitive activity-based protein profiling, FAAH (mouse); format: biochemical; conditions: for inhibition at 1 µM: read-out: FAAH % inh. 1 μM (mouse)
FAAH, sequence (O08914 whole entry): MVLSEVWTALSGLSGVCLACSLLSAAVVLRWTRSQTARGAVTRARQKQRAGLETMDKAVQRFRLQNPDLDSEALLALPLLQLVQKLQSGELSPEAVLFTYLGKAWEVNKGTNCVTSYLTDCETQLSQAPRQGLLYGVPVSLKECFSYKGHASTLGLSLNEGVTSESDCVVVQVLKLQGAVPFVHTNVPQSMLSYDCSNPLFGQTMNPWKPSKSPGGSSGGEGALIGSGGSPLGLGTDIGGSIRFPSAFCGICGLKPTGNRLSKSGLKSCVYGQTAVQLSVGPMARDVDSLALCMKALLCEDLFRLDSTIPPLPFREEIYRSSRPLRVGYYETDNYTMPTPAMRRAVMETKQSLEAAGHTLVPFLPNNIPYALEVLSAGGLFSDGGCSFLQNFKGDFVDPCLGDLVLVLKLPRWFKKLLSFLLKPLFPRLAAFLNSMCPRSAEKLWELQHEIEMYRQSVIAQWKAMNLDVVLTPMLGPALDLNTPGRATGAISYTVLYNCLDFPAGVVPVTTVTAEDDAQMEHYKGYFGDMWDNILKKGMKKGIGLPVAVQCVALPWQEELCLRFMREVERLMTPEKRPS
How it was run: (§1)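 Competitive ABPP; proteome 1.0 mg/mL total protein; mouse = brain membranes or cell lysates, human = prefrontal cortex or cell membranes. Inhibitor preinc 30 min, 37° C; FP-Rh/HT-01 (50 μM DMSO stock) 30 min, 37° C; SDS-PAGE, in-gel fluorescence of MAGL/FAAH bands.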

[3] = molecular target: T1, MAGL; experiment: In vitro competitive activity-based protein profiling, MAGL (mouse); format: biochemical; conditions: for inhibition at 1 µM: read-out: MAGL % inh. 1 μM (mouse)
How it was run: as §1

T1 sequence (O35678 whole entry): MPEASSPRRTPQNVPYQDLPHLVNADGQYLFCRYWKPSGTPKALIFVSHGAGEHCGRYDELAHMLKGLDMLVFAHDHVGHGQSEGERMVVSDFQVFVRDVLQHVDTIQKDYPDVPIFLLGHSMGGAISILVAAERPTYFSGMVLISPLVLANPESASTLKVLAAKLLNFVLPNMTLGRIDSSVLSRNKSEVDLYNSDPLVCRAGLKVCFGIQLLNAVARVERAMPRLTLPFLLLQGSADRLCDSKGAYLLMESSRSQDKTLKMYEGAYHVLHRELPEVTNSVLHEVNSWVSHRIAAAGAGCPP

| inhibition at 5 mg/kg [1] [%] | IC50 [2] [nM] | inhibition at 1 µM [2] [%] | IC50 [3] [nM] | inhibition at 1 µM [3] [%] | SMILES |
| --- | --- | --- | --- | --- | --- |
| 50 to 75 | 1000 to 10000 | ≥ 75 | ≤ 100 | 25 to 50 | CS(=O)(=O)Nc1cnn(C(=O)N2CCN(Cc3ccc(N4CCCC4)cc3C(F)(F)F)CC2)c1 [Example 292, N-(1-(4-(4-(pyrrolidin-1-yl)-2-(trifluoromethyl)benzyl)piperazine-1-carbonyl)-1H-pyrazol-4-yl)methanesulfonamide] |
| 50 to 75 | ≤ 100 | ≥ 75 | 100 to 1000 | ≥ 75 | CC(=O)N(C)c1cnn(C(=O)N2CC3CN(Cc4ccccc4Cl)CC3C2)c1 (stereo not drawn) [Example 9, N-(1-(5-(2-chlorobenzyl)octahydropyrrolo[3,4-c]pyrrole-2-carbonyl)-1H-pyrazol-4-yl)-N-methylacetamide] |
| 0 to 25 | 100 to 1000 | ≥ 75 | ≤ 100 | ≥ 75 | CC(=O)N(C)c1cnn(C(=O)N2CC3CN(Cc4ccc(Oc5cncnc5)cc4Cl)CC3C2)c1 (stereo not drawn) [Example 274, N-(1-(5-(2-chloro-4-(pyrimidin-5-yloxy)benzyl)octahydropyrrolo[3,4-c]pyrrole-2-carbonyl)-1H-pyrazol-4-yl)-N-methylacetamide] |
| ≥ 75 | ≤ 100 | ≥ 75 | 100 to 1000 | ≥ 75 | CC(=O)N(C)c1cnn(C(=O)N2CC3CN(Cc4ccc(Cl)cc4)CC3C2)c1 (stereo not drawn) [Example 11, N-(1-(5-(4-chlorobenzyl)octahydropyrrolo[3,4-c]pyrrole-2-carbonyl)-1H-pyrazol-4-yl)-N-methylacetamide] |
| 0 to 25 | 1000 to 10000 | 0 to 25 | ≤ 100 | ≥ 75 | CC(=O)N(C)c1cnn(C(=O)N2C[C@H]3C[C@H](N(Cc4ccccc4Cl)C(C)=O)C[C@H]3C2)c1 [Example 172, N-(2-chlorobenzyl)-N-(trans-2-(4-(N-methylacetamido)-1H-pyrazole-1-carbonyl)octahydrocyclopenta[c]pyrrol-5-yl)acetamide] |
| 25 to 50 | ≤ 100 | ≥ 75 | 100 to 1000 | ≥ 75 | CC(=O)N(C)c1cnn(C(=O)N2CCC3(CCN(Cc4cccc(Oc5ccccc5)c4)C3)C2)c1 (stereo not drawn) [Example 236, N-methyl-N-(1-(7-(3-phenoxybenzyl)-2,7-diazaspiro[4.4]nonane-2-carbonyl)-1H-pyrazol-4-yl)acetamide] |
